Where two headings read alike, the source gives them in different places.
What was measured:
[1] = system: HeLa (cervical carcinoma); assay: Proliferation assay (MTT, 72 h) on HeLa; assay type: cell-based; settings: Homo sapiens
Description: (§1) Human cell lines SW620 (colorectal adenocarcinoma, metastatic), MCF-7 (human breast adenocarcinoma), CFPAC-1 (pancreatic adenocarcinoma), HeLa (cervical carcinoma), and HFF-1 (human foreskin fibroblasts) were obtained from the American Type Culture Collection (ATCC). Cells were cultured in a humidified atmosphere at 37 °C with 5% CO2. As a growth medium, Dulbecco’s modified Eagle medium (DMEM) was used with the addition of foetal bovine serum (10%), L-glutamine (2 mM), and antibiotics: streptomycin ([…]) and penicillin (100 U/ml).
(§2) Cells were seeded onto 96-well microtiter plates at a seeding density of 3000 cells/well for carcinoma cell lines, and 5000 cells/well for normal human fibroblasts. The next day, cells were treated with test agents at five different concentrations (0.01–100 µM) and further incubated for 72 h. […] 5-Fluorouracil (5-FU, 0.384 M fluorouracilum, Pliva 500 mg/10 ml) dissolved in physiological solution was used as a positive control. Following 72 h incubation, the MTT assay was performed and measured absorbances were transformed into a percentage of cell growth as described previously. Results were obtained from three independent experiments. IC50 values were calculated using linear regression analysis (FORECAST option taking into account the concentration range of two experimental points above and below IC50).

[2] = system: MCF-7 (human breast adenocarcinoma); assay: Proliferation assay (MTT, 72 h) on MCF-7; assay type: cell-based; settings: MCF7, MCF-7, 72 h
Description: as §1, §2

[3] = system: SW620 (colorectal adenocarcinoma, metastatic); assay: Proliferation assay (MTT, 72 h) on SW620; assay type: cell-based; settings: Homo sapiens, SW-620, SW620, 72 h
Description: as §1, §2

[4] = system: CFPAC-1 (pancreatic adenocarcinoma); assay: Proliferation assay (MTT, 72 h) on CFPAC-1; assay type: cell-based; settings: Homo sapiens, CFPAC-1, 72 h
Description: as §1, §2

[5] = system: WI-38 fibroblast cell line; assay: Growth inhibition of WI-38 fibroblasts (control substance); assay type: cell-based; settings: Homo sapiens; WI-38 fibroblast cell line (footnote c)
[6] = system: L6 cells (a rat myoblast line); assay: L6 cell proliferation (cytotoxicity, resazurin); assay type: cell-based; settings: 144 h; rat myoblast L6, 6 days
[7] = system: Bloodstream form T. b. brucei (strain 221); assay: Antitrypanosomal screening (resazurin); assay type: cell-based; settings: Trypanosoma brucei; for IC90: concentration that inhibited growth by 90%, mean ± SEM; for IC50: mean of triplicate ± SEM
Description: Resazurin (20 μl at 0.125 mg ml^−1) was added after 48 h, the plates were incubated for a further 16 h, and then read in a Spectramax plate reader, and data analysed using GraphPad Prism. Each drug was tested in triplicate.

calf thymus ctDNA = assay: Fluorimetric titration with ctDNA; assay type: binding; settings: for I/I0: fluorescence intensity of complex / starting intensity, ctDNA, pH 7.0; for LogKs: fluorescence titration with ctDNA, Scatchard, fixed n = 0.6, pH 7.0, sodium cacodylate I = 0.05 mol dm−3
Description: The calf thymus ctDNA was additionally sonicated and filtered through a […]. Polynucleotide concentration was determined spectroscopically[50]^,[51] as the concentration of phosphates. Fluorescence spectra were recorded on a Varian Cary Eclipse spectrophotometer at 25 °C using appropriate 1 cm path quartz cuvettes. […] In fluorimetric experiments, an excitation wavelength of λexc ≥300 nm was used to avoid the inner filter effect caused due to increasing absorbance of the polynucleotide. Emissions were determined in the range λem = 350–650 nm. Values for Ks were obtained by processing titration data using the Scatchard equation[52].

[8] = system: HFF-1 (human foreskin fibroblasts); assay: Proliferation assay (MTT, 72 h) on normal fibroblasts HFF-1; assay type: cell-based; settings: HFF-1 normal fibroblasts
Description: as §1, §2

ctDNA [9] = assay: Thermal denaturation of ctDNA; assay type: binding, calf; settings: r = [compound]/[polynucleotide] = 0.3, pH 7.0; error ±0.5 °C
Description: (§3) These solutions were used for measurements in an aqueous buffer (pH = 7, sodium cacodylate buffer, I = 0.05 mol dm^−3). Polynucleotides were purchased as noted: poly (dAdT)2 and calf thymus ctDNA (Sigma-Aldrich). Polynucleotides were dissolved in Na-cacodylate buffer, I = 0.05 mol dm^−3, pH = 7. The calf thymus ctDNA was additionally sonicated and filtered through a […]. Polynucleotide concentration was determined spectroscopically[50]^,[51] as the concentration of phosphates.
(§4) The UV/Vis spectra were recorded on a Varian Cary 100 Bio spectrophotometer using 1 cm path quartz cuvettes. Calibration experiments were performed at 25 °C and pH = 7 (I = 0.05 mol dm^−3, sodium cacodylate buffer). Absorption maxima and corresponding molar extinction coefficients (ε) of benzothiazole derivatives are given in Table S1 (Supplementary material). Thermal melting curves for DNA and their complexes with studied compounds were determined as previously described by following the absorption change at 260 nm as a function of temperature. The absorbance of the ligands was subtracted from every curve and the absorbance scale was normalised. Tm values are the midpoints of the transition curves determined from the maximum of the first derivative and checked graphically by the tangent method. The ΔTm values were calculated by subtracting Tm of the free nucleic acid from Tm of the complex. Every ΔTm value reported here was the average of at least two measurements. The error in ΔTm is ±0.5 °C.

poly (dAdT)2 = assay: Thermal denaturation of p(dAdT)2; assay type: binding; settings: r = [compound]/[polynucleotide] = 0.3, pH 7.0; error ±0.5 °C
Description: as §3, §4

ctDNA [10] = assay: CD titration of ctDNA; assay type: binding, calf; settings: for induced CD (ICD) signal with ctDNA: CD titration, pH 7.0, λ > 300 nm; for binding mode to ctDNA: concluded from ICD, ΔTm and binding constants
Description: as §3
CD spectra were recorded on a JASCO J815 spectrophotometer in 1 cm path quartz cuvettes. CD parameters: range = 500–220 nm, data pitch = 2, standard sensitivity, scanning speed = 200 nm/min, accumulation = 3–5. Titrations were performed at 25 °C and pH = 7 (I = 0.05 mol dm^−3, sodium cacodylate buffer). CD experiments were done by adding portions of the compound stock solution into the polynucleotide solution.

[11] = system: Bloodstream form T. b. brucei (strain 221); settings: read-out: T. brucei IC50; reference drug; ref Wilkinson et al.[54]; cited from earlier work

| SMILES | IC50 [1] [nM] | IC50 [2] [nM] | IC50 [3] [nM] | IC50 [4] [nM] | IC50 [5] [nM] | IC50 [6] [nM] | IC90 [7] [nM] | IC50 [7] [nM] | I/I0 (calf thymus ctDNA) | LogKs (calf thymus ctDNA) | IC50 [8] [nM] | ΔTm ctDNA (ctDNA [9]) [°C] | melting point [°C] | ΔTm p(dAdT)2 (poly (dAdT)2) [°C] | induced CD (ICD) signal with ctDNA (ctDNA [10]) | binding mode to ctDNA (ctDNA [10]) | IC50 [11] [nM] |
| --- | --- | --- | --- | --- | --- | --- | --- | --- | --- | --- | --- | --- | --- | --- | --- | --- | --- |
| O=c1[nH]cc(F)c(=O)[nH]1 [5-FU, 5-Fluorouracil, reference compound] | 47500 ± 1930 | 90 ± 10 | 6400 ± 220 | 6450 ± 660 | 940 | – | – | – | – | – | – | – | – | – | – | – | – |
| CS(=O)(=O)O.Clc1ccc(-n2cc(COc3nc4ccc(C5=NCCN5)cc4s3)nn2)cc1 [11b, 6-(4,5-Dihydro-1H-imidazol-3-ium-2-yl)-2-{[1-(4-chlorophenyl)-1H-1,2,3-triazol-4-yl]methoxy}benzothiazole methanesulfonate] | 2610 ± 420 | 3120 ± 360 | 2840 ± 190 | 3090 ± 190 | – | < 2000 | 120 ± 30 | 90 ± 20 | 0.21 | 6.6 | 170 ± 90 | 1.2 | 263 to 266 | 1.1 | small negative ICD signal | intercalation | – |
| CS(=O)(=O)O.Clc1ccc(-n2cc(-c3nc4ccc(C5=NCCCN5)cc4s3)nn2)cc1 [15b, 6-(3,4,5,6-Tetrahydropyrimidin-1-ium-2-yl)-2-[1-(4-chlorophenyl)-1H-1,2,3-triazole-4-yl]benzothiazole methanesulfonate] | 2270 ± 80 | 2100 ± 1090 | 890 ± 310 | 710 ± 170 | – | 7690 ± 160 | 3840 ± 650 | 1120 ± 230 | 0.35 | 5.4 | 740 ± 50 | 0 | 288 to 293 | 5.4 | positive induced CD spectra | minor groove binding mode | – |
| CC1CS(=O)(=O)CCN1/N=C/c1ccc([N+](=O)[O-])o1 (stereo not drawn) [Nifurtimox] | – | – | – | – | – | – | – | – | – | – | – | – | – | – | – | – | 2000 ± 240 |

From PMC8409973, “Synthesis, antiproliferative and antitrypanosomal activities, and DNA binding of novel 6-amidino-2-arylbenzothiazoles” (Journal of Enzyme Inhibition and Medicinal Chemistry, 2021)
